# According to US20090239941A1, “AMINO ACID DERIVATIVES” (PROXIMAGEN LTD., priority 2006, published 2009):
# Test system: 6-OHDA-lesioned rats
# Assay: Assessment of activity in 6-OHDA-lesioned rats (induction of rotational activity)
# Assay type: in vivo, rat
# Settings: p.o., 63.4 μmole/kg, after benserazide 10 mg/kg; rotations over 4 hours; male Wistar rats
compound,measurement,value
"CC(C)CC(=O)Oc1ccc(C[C@H](N)C(N)=O)cc1OC(=O)CC(C)C.Cl [Example 5, (S)-2-[3,4-Bis-(3-methylbutyryloxy)-phenyl]-1-carbamoylethylammonium chloride]",Duration of activity as % of that of L-Dopa,71%
same,Peak activity as % of that of L-Dopa,118%
same,"Total activity (AUC activity, area under the locomotor-activity/time curve) as % of that of L-Dopa",89%
